Structures can show the parent of a compound that is named as a salt. Residues, ends and D or L forms follow the SMILES beside them.
Key:
Format in all cases: in vivo
[1] = tested on: growth hormone (GH); experiment: Suppression of Growth Hormone (duration of activity, 2 and 4 hours after sc injection); conditions: 1 mg/kg sc, nonfasted male rats, paired saline control; for plasma growth hormone (GH) concentration, 2 Hr.: 2 hours after injection; for plasma growth hormone (GH) concentration, 4 Hr.: 4 hours after injection
Description: A subcutaneous (sc) injection of peptide solubilized or suspended in physiological saline, is given to Charles River (CD® nonfasted male rats. Matched saline control solution sc injected rats serve as control animals so that every experimental rat is paired with a control rat. The rats are kept in separate cages and 20 minutes before the end of the test time period they are given an intraperitoneal (i.p.) injection of Nembutal® at a dose of 50 mg/kg. Blood samples are obtained by cardiac puncture and the plasma separated for the radioimmunoassay of growth hormone (GH) concentration (ng/ml.). Time periods after injection of 2 and 4 hours are used to test the duration of the activity of the peptide to suppress circulating peripheral GH levels. Comparisons between control and experimental GH values at each time are evaluated by the Student "t" test and statistical significance (p) at the 0.05 level or lower is used as the index of activity.

[2] = tested on: growth hormone; experiment: Suppression of Growth Hormone, Glucagon and Insulin (arginine-stimulated, nembutal-anesthetized rats): growth hormone; conditions: for GH: albino male rats, arginine stimulation, blood 15 min after compound
Description: (§1) Albino male rats are arranged in the three groups (nine rats/group) and injected i.p. with nembutal at 50 mg/kg. Fifteen minutes after the nembutal injection they are injected s.c. according to group with (a) test compound, typically 10-2000 μg/kg.; )b) SRIF 200 μg/kg.; or (c) physiological saline. Ten minutes. later 0.5 ml. of arginine (300 mg/ml. pH 7.2) is injected into the heart. The rats are decapitated five minutes after receiving the arginine, and the blood is collected into Trasylol-EDTA. Appropriate aliquots are then assayed for growth hormone, glucagon and insulin. […] Comparisons between control and experimental values are statistically evaluated by the analysis of variants method and statistical significance (p) at 0.05 or lower is used as the index of activity.

[3] = tested on: insulin; experiment: Suppression of Growth Hormone, Glucagon and Insulin (arginine-stimulated, nembutal-anesthetized rats): insulin; conditions: albino male rats, arginine stimulation, blood 15 min after compound
Description: as §1

[4] = tested on: glucagon; experiment: Suppression of Growth Hormone, Glucagon and Insulin (arginine-stimulated, nembutal-anesthetized rats): glucagon; conditions: albino male rats, arginine stimulation, blood 15 min after compound
Description: as §1

C[C@@H](O)[C@@H]1NC(=O)[C@H](CCCCN)NC(=O)[C@@H](Cc2c[nH]c3ccccc23)NC(=O)[C@H](Cc2ccccc2)NC(=O)[C@H](Cc2ccccc2)NC(=O)[C@H](Cc2c[nH]cn2)NC(=O)[C@H](Cc2c[nH]cn2)NC(=O)[C@@H](N)CSSC[C@H](C(=O)O)NC(=O)[C@H](CO)NC(=O)[C@H]([C@@H](C)O)NC(=O)[C@H](Cc2ccccc2)NC1=O [Compound II, L-Cysteinyl-L-Histidyl-L-Histidyl-L-Phenylalanyl-L-Phenylalanyl-D-Tryptophyl-L-Lysyl-L-Threonyl-L-Phenylalanyl-L-Threonyl-L-Seryl-D-Cysteine Cyclic (1-12) Disulfide, Diacetate Salt] (HELM PEPTIDE1{C.H.H.F.F.[dW].K.T.F.T.S.[dC]}$PEPTIDE1,PEPTIDE1,1:R3-12:R3$$$V2.0)
plasma growth hormone (GH) concentration, 2 Hr. [1]: 20 ± 3 ng/mL | plasma growth hormone (GH) concentration, 4 Hr. [1]: 107 ± 34 ng/mL | GH ([2]; 10 μg/kg s.c.): 110 ± 22 ng/mL | GH ([2]; 100 μg/kg s.c.): 64 ± 20 ng/mL | hormone specificity of suppression ([2]; at low doses, growth hormone, glucagon and insulin): specific for the suppression of glucagon and growth hormone without affecting insulin secretion | Insulin ([3]; 10 μg/kg s.c.): 318 ± 54 μU/ml. | Insulin ([3]; 100 μg/kg s.c.): 165 ± 21 μU/ml. | Glucagon ([4]; 10 μg/kg s.c.): 70 ± 7 pg/mL | Glucagon ([4]; 100 μg/kg s.c.): 5 ± 2 pg/mL

C[C@@H](O)[C@@H]1NC(=O)[C@H](Cc2ccccc2)NC(=O)[C@H]([C@@H](C)O)NC(=O)[C@H](CCCCN)NC(=O)[C@@H](Cc2c[nH]c3ccccc23)NC(=O)[C@H](Cc2ccccc2)NC(=O)[C@H](Cc2ccccc2)NC(=O)[C@H](Cc2c[nH]cn2)NC(=O)[C@H](Cc2c[nH]cn2)NC(=O)[C@@H](N)CSSC[C@@H](C(=O)O)NC(=O)[C@H](CO)NC1=O [Compound I, L-Cysteinyl-L-Histidyl-L-Histidyl-L-Phenylalanyl-L-Phenylalanyl-D-Trptophyl-L-Lysyl-L-Threonyl-L-Phenylalanyl-L-Threonyl-L-Seryl-L-Cysteine Cyclic (1-12) Disulfide] (HELM PEPTIDE1{C.H.H.F.F.[dW].K.T.F.T.S.C}$PEPTIDE1,PEPTIDE1,1:R3-12:R3$$$V2.0)
plasma growth hormone (GH) concentration, 2 Hr. [1]: 32 ± 6 ng/mL | plasma growth hormone (GH) concentration, 4 Hr. [1]: 62 ± 13 ng/mL | GH ([2]; 100 μg/kg s.c.): 20 ± 8 ng/mL | Insulin ([3]; 100 μg/kg s.c.): 202 ± 49 μU/ml. | Glucagon ([4]; 100 μg/kg s.c.): 20 ± 8 pg/mL
